The record followed here is paper PMC6118295 (CPT: Pharmacometrics & Systems Pharmacology, 2018).

The target of the experiment is T1, Recombinant human CES1 (CES1b/CES1A1) (Homo sapiens, UniProt P23141).
T1 sequence (P23141 18-567): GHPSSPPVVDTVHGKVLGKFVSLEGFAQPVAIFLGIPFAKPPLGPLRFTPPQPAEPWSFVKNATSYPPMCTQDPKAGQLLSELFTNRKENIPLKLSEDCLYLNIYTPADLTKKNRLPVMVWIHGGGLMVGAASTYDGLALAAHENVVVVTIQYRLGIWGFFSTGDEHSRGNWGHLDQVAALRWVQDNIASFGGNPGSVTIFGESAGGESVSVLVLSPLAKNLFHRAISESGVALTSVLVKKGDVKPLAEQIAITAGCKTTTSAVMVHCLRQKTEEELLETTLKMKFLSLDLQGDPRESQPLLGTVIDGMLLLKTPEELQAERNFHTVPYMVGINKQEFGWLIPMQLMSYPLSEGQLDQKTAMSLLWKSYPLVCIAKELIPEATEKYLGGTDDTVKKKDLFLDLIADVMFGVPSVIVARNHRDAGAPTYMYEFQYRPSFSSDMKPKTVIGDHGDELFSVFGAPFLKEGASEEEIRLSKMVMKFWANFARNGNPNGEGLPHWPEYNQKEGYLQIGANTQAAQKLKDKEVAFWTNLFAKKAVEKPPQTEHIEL
Kind of experiment: In vitro inhibition of recombinant CES1. Format: biochemical. The note with it: for IC50 relative to diltiazem: recombinant CES1, fold higher than IC50 of diltiazem.

For the compound `C[C@H](CCC(=O)NCCS(=O)(=O)O)[C@H]1CC[C@H]2[C@@H]3[C@H](O)C[C@@H]4C[C@H](O)CC[C@]4(C)[C@H]3CC[C@]12C` [Taurochenodeoxycholic acid], the “IC50 relative to diltiazem” value is “more than fourfold higher”.

By IC50 is commonly meant the concentration that inhibits the measured activity by half. As to `C[C@H](CCC(=O)NCCS(=O)(=O)O)[C@H]1CC[C@H]2[C@@H]3[C@H](O)C[C@@H]4C[C@H](O)CC[C@]4(C)[C@H]3C[C@H](O)[C@]12C` [Taurocholic acid], the IC50 was found to be 19.5 µM.

With `C[C@H](CCC(=O)NCC(=O)O)[C@H]1CC[C@H]2[C@@H]3[C@H](O)C[C@@H]4C[C@H](O)CC[C@]4(C)[C@H]3CC[C@]12C` [Glycochenodeoxycholic acid], the “IC50 relative to diltiazem” value is listed as about 10 fold.

Turning to `C[C@H](CCC(=O)O)[C@H]1CC[C@H]2[C@@H]3[C@H](O)C[C@@H]4C[C@H](O)CC[C@]4(C)[C@H]3CC[C@]12C` [Chenodeoxycholic acid], the IC50 turned out to be 13.5 µM.
